{"source": "patent US20190060298A1", "about": "“NEW DRUG FOR THE TREATMENT AND/OR PREVENTION OF DEPRESSIVE DISORDERS” (SORBONNE UNIVERSITE, priority 2013, published 2019)", "key": {"[1]": {"tested_on": "HPA axis", "assay": "Activity of the HPA (corticotropic) axis", "assay_type": "in vivo, Sprague-Dawley rats", "details": "vulnerable animals vs vulnerable animals treated with vehicle", "method": "Tempol (4-hydroxy-2,2,6,6-tetramethylpiperidine 1-oxyl), which was administered at a dose of 288 μmol/kg/day [Sigma-Aldrich, St Louis, Mo., USA]), was dissolved in distilled water and delivered via ALZET osmotic mini-pumps (2002, Charles River Laboratories, France). Tempol- or distilled water-filled pumps were implanted subcutaneously on the back of intruder rats under light anesthesia with isofluorane, 11 days after completion of the social-defeat procedure (D11), and were left in place for 15 days.\nWhen the rats were killed (at D57), blood from trunk vessels was collected into chilled tubes and corticosterone was quantified by RIA (ICN Biomedicals, Orsay, France), using [125I]corticosterone as a radiotracer (Andre et al., 2005). Adrenal glands were removed, dissected free of adhering fat, and weighed. Organ weights are expressed relative to body weights (mg gland/100 g body weight). Rats were decapitated at midday in a quiet separate room, one by one, with the bench cleaned between rats."}, "[2]": {"tested_on": "glutathione peroxidase (GPx)", "assay": "Glutathione peroxidase activity in hippocampus", "assay_type": "in vivo, Sprague-Dawley rats", "details": "288 μmol/kg/day, 15 days from D11; D31", "method": "The right hippocampus was homogenized in ice-cold buffer (Tris-HCl 50 mM pH 7.5, 150 mM NaCl, 1 mM EDTA) and used for TBARS and glutathione peroxidase (GPx) assays.\nFor the TBARS assay, protease inhibitors (50 μl/ml), DOC (1%), SDS (0.1%) and Triton® X-100 (0.5%) were added immediately in ice-cold buffer. For the GPx assay, 0.1 M dithiothreitol was added immediately in ice-cold buffer. The homogenates were centrifuged and the supernatants were retained for analysis. Lipid peroxidation was assessed by measuring TBARS formation with a commercial assay kit (Cayman Chemical, Ann Arbor, Mich., USA), in accordance with the manufacturer's instructions. TBARS concentration was calculated from an MDA standard curve and normalized. Total GPx activity in the homogenate was measured in accordance with the kit manufacturer's instructions (Cayman Chemical, Ann Arbor, Mich., USA). GPx specific activity is expressed as nmoles of NADPH consumed per minute per mg of hippocampal tissue. No difference in hippocampal weight was observed between defeated, vulnerable, non-vulnerable and control animals.\nTempol (4-hydroxy-2,2,6,6-tetramethylpiperidine 1-oxyl), which was administered at a dose of 288 μmol/kg/day [Sigma-Aldrich, St Louis, Mo., USA]), was dissolved in distilled water and delivered via ALZET osmotic mini-pumps (2002, Charles River Laboratories, France). […]"}}}
{"smiles": "CC1(C)CC(O)CC(C)(C)N1[O]", "note": "[TEMPOL, 4-hydroxy-2,2,6,6-tetramethylpiperidin-1-oxyl]", "values": [{"measurement": "adrenal gland weight", "setting": "[1]", "result": "prevented the increase"}, {"measurement": "corticosterone levels", "setting": "[1]", "result": "prevented the increase of corticosterone levels"}, {"measurement": "glutathione peroxidase (GPx) activity", "setting": "[2]", "result": "mild effect"}]}
